Assay results published in patent US6355799B1, “Substituted benzene compounds, process for their preparation, and herbicidal and defoliant compositions containing them” (ISK Americas Incorporated, priority 1997, dated 2002).

How the values were obtained:
Assay type in all cases: in vivo
[1] = test system: redroot pigweed (Amaranthus retroflexus, AMARE); test: Pre-emerge test, greenhouse herbicide activity screening; details: pre-emerge, rated 14 days after application, 0 = no damage, 100 = complete death
In short: (§1)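 Herbicidal damage is scored 0 (none) to 100 (complete plant death) two weeks after a simulated field spray. Rates span 15–1000 g ai/ha, delivered in acetone at 187 l/ha. For post-emergence treatments, plants have 2–3 leaves and the spray carries 0.25% v/v non-ionic surfactant.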

[2] = test system: barnyardgrass (Echinochloa crus-galli, ECHCG); test: as above; details: pre-emerge, rated 14 days after application, 0 = no damage, 100 = complete death
In short: as §1

[3] = test system: common ragweed (Ambrosia artemisizfolia L., AMBEL); test: as above; details: pre-emerge, rated 14 days after application, 0 = no damage, 100 = complete death
In short: as §1

[4] = test system: green foxtail (Setaria viridis, SETVI); test: as above; details: pre-emerge, rated 14 days after application, 0 = no damage, 100 = complete death
In short: as §1

[5] = test system: ivyleaf morningglory (Ipomoea hederacea, IPOHE); test: as above; details: pre-emerge, rated 14 days after application, 0 = no damage, 100 = complete death
In short: as §1

[6] = test system: johnsongrass (Sorghum halepense, SORHA); test: as above; details: pre-emerge, rated 14 days after application, 0 = no damage, 100 = complete death
In short: as §1

[7] = test system: lambsquarters (Chenopodium album, CHEAL); test: as above; details: pre-emerge, rated 14 days after application, 0 = no damage, 100 = complete death
In short: as §1

[8] = test system: large crabgrass (Digitaria sanguinalis, DIGSA); test: as above; details: pre-emerge, rated 14 days after application, 0 = no damage, 100 = complete death
In short: as §1

[9] = test system: sicklepod (Cassia obtusifolia, CASOB); test: as above; details: pre-emerge, rated 14 days after application, 0 = no damage, 100 = complete death
In short: as §1

[10] = test system: velvetleaf (Abutilon theophrasti, ABUTH); test: as above; details: pre-emerge, rated 14 days after application, 0 = no damage, 100 = complete death
In short: as §1

[11] = test system: field corn (Zea mays L., var. Dekalb 535, CORN); test: Pre-emerge test, crop safety; details: pre-emerge, rated 14 days after application, 0 = no damage, 100 = complete death
In short: (§2)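 Visual ratings on a 0-100 scale (0 no damage, 100 all plants dead) were taken at 14 days after treatment. Rates of 15-1000 g ai/ha in acetone, 187 l/ha, were sprayed onto soil one day after planting (pre-emerge) or onto 2-3 leaf plants with 0.25% v/v surfactant (post-emerge).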

[12] = test system: upland rice (Oryza sp., var. Tebonnet, RICE); test: Pre-emerge test, crop safety; details: pre-emerge, rated 14 days after application, 0 = no damage, 100 = complete death
In short: as §2

[13] = test system: barnyardgrass (Echinochloa crus-galli, ECHCG); test: Post-emerge test, greenhouse herbicide activity screening; details: phytotoxicity rating 0-100 (0 no damage, 100 complete death), 14 days after application
In short: (§3)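 Fourteen days after spraying, crop and weed injury was graded visually from 0, no effect, to 100, every plant dead. Test substances were dissolved in acetone and applied at 15–1000 g ai/ha with a flat-fan nozzle. Application was either pre-emergence, one day after sowing, or post-emergence at the 2–3 leaf stage.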

[14] = test system: common ragweed (Ambrosia artemisizfolia L., AMBEL); test: as above; details: phytotoxicity rating 0-100 (0 no damage, 100 complete death), 14 days after application
In short: as §3

[15] = test system: green foxtail (Setaria viridis, SETVI); test: as above; details: phytotoxicity rating 0-100 (0 no damage, 100 complete death), 14 days after application
In short: as §3

[16] = test system: ivyleaf morningglory (Ipomoea hederacea, IPOHE); test: as above; details: phytotoxicity rating 0-100 (0 no damage, 100 complete death), 14 days after application
In short: as §3

[17] = test system: johnsongrass (Sorghum halepense, SORHA); test: as above; details: phytotoxicity rating 0-100 (0 no damage, 100 complete death), 14 days after application
In short: as §3

[18] = test system: lambsquarters (Chenopodium album, CHEAL); test: as above; details: phytotoxicity rating 0-100 (0 no damage, 100 complete death), 14 days after application
In short: as §3

[19] = test system: large crabgrass (Digitaria sanguinalis, DIGSA); test: as above; details: phytotoxicity rating 0-100 (0 no damage, 100 complete death), 14 days after application
In short: as §3

[20] = test system: redroot pigweed (Amaranthus retroflexus, AMARE); test: as above; details: phytotoxicity rating 0-100 (0 no damage, 100 complete death), 14 days after application
In short: as §3

[21] = test system: sicklepod (Cassia obtusifolia, CASOB); test: as above; details: phytotoxicity rating 0-100 (0 no damage, 100 complete death), 14 days after application
In short: as §3

[22] = test system: velvetleaf (Abutilon theophrasti, ABUTH); test: as above; details: phytotoxicity rating 0-100 (0 no damage, 100 complete death), 14 days after application
In short: as §3

[23] = test system: field corn (Zea mays L., var. Dekalb 535, CORN); test: Post-emerge test, crop safety; details: phytotoxicity rating 0-100 (0 no damage, 100 complete death), 14 days after application
In short: as §1

[24] = test system: upland rice (Oryza sp., var. Tebonnet, RICE); test: Post-emerge test, crop safety; details: phytotoxicity rating 0-100 (0 no damage, 100 complete death), 14 days after application
In short: as §1

`CCCc1ccc(C(=O)N(C(=O)c2ccc(CCC)cc2)c2c(OC)c(Cl)cc(F)c2-n2c(=O)cc(C(F)(F)F)n(C)c2=O)cc1` [2-29] was tested, and the “Pre-emerge Herbicidal Activity AMARE (phytotoxicity rating, scale 0-100)” value ([1]; 63 g ai/ha) was 100, the “Pre-emerge Herbicidal Activity AMARE (phytotoxicity rating, scale 0-100)” value ([1]; 250 g ai/ha) was 100 and the “Pre-emerge Herbicidal Activity ECHCG (phytotoxicity rating, scale 0-100)” value ([2]; 63 g ai/ha) was 0. For the same compound, the “Pre-emerge Herbicidal Activity ECHCG (phytotoxicity rating, scale 0-100)” value ([2]; 250 g ai/ha) was 50, the “Pre-emerge Herbicidal Activity AMBEL (phytotoxicity rating, scale 0-100)” value ([3]; 63 g ai/ha) was 0 and the “Pre-emerge Herbicidal Activity AMBEL (phytotoxicity rating, scale 0-100)” value ([3]; 250 g ai/ha) was 60. For the same compound, the “Pre-emerge Herbicidal Activity SETVI (phytotoxicity rating, scale 0-100)” value ([4]; 63 g ai/ha) was 100, the “Pre-emerge Herbicidal Activity SETVI (phytotoxicity rating, scale 0-100)” value ([4]; 250 g ai/ha) was 100 and the “Pre-emerge Herbicidal Activity IPOHE (phytotoxicity rating, scale 0-100)” value ([5]; 63 g ai/ha) was 30. For the same compound, the “Pre-emerge Herbicidal Activity IPOHE (phytotoxicity rating, scale 0-100)” value ([5]; 250 g ai/ha) was 100, the “Pre-emerge Herbicidal Activity SORHA (phytotoxicity rating, scale 0-100)” value ([6]; 63 g ai/ha) was 0 and the “Pre-emerge Herbicidal Activity SORHA (phytotoxicity rating, scale 0-100)” value ([6]; 250 g ai/ha) was 80. The “Pre-emerge Herbicidal Activity CHEAL (phytotoxicity rating, scale 0-100)” value ([7]; 63 g ai/ha) was 100, the “Pre-emerge Herbicidal Activity CHEAL (phytotoxicity rating, scale 0-100)” value ([7]; 250 g ai/ha) was 100 and the “Pre-emerge Herbicidal Activity DIGSA (phytotoxicity rating, scale 0-100)” value ([8]; 63 g ai/ha) was 60. For the same compound, the “Pre-emerge Herbicidal Activity DIGSA (phytotoxicity rating, scale 0-100)” value ([8]; 250 g ai/ha) was 90, the “Pre-emerge Herbicidal Activity CASOB (phytotoxicity rating, scale 0-100)” value ([9]; 63 g ai/ha) was 60 and the “Pre-emerge Herbicidal Activity CASOB (phytotoxicity rating, scale 0-100)” value ([9]; 250 g ai/ha) was 100. For the same compound, the “Pre-emerge Herbicidal Activity ABUTH (phytotoxicity rating, scale 0-100)” value ([10]; 63 g ai/ha) was 100, the “Pre-emerge Herbicidal Activity ABUTH (phytotoxicity rating, scale 0-100)” value ([10]; 250 g ai/ha) was 100 and the “Pre-emerge crop damage CORN (phytotoxicity rating, scale 0-100)” value ([11]; 63 g ai/ha) was 0. The “Pre-emerge crop damage CORN (phytotoxicity rating, scale 0-100)” value ([11]; 250 g ai/ha) was 15, the “Pre-emerge crop damage RICE (phytotoxicity rating, scale 0-100)” value ([12]; 63 g ai/ha) was 40 and the “Pre-emerge crop damage RICE (phytotoxicity rating, scale 0-100)” value ([12]; 250 g ai/ha) was 65. For the same compound, the “Post-emerge Herbicidal Activity ECHCG” value ([13]; 63 g ai/ha) was 0, the “Post-emerge Herbicidal Activity ECHCG” value ([13]; 250 g ai/ha) was 20 and the “Post-emerge Herbicidal Activity AMBEL” value ([14]; 63 g ai/ha) was 50. The “Post-emerge Herbicidal Activity AMBEL” value ([14]; 250 g ai/ha) was 60, the “Post-emerge Herbicidal Activity SETVI” value ([15]; 63 g ai/ha) was 20 and the “Post-emerge Herbicidal Activity SETVI” value ([15]; 250 g ai/ha) was 50. For the same compound, the “Post-emerge Herbicidal Activity IPOHE” value ([16]; 63 g ai/ha) was 75, the “Post-emerge Herbicidal Activity IPOHE” value ([16]; 250 g ai/ha) was 100 and the “Post-emerge Herbicidal Activity SORHA” value ([17]; 63 g ai/ha) was 0. For the same compound, the “Post-emerge Herbicidal Activity SORHA” value ([17]; 250 g ai/ha) was 10, the “Post-emerge Herbicidal Activity CHEAL” value ([18]; 63 g ai/ha) was 80 and the “Post-emerge Herbicidal Activity CHEAL” value ([18]; 250 g ai/ha) was 90. For the same compound, the “Post-emerge Herbicidal Activity DIGSA” value ([19]; 63 g ai/ha) was 0, the “Post-emerge Herbicidal Activity DIGSA” value ([19]; 250 g ai/ha) was 20 and the “Post-emerge Herbicidal Activity AMARE” value ([20]; 63 g ai/ha) was 90. The “Post-emerge Herbicidal Activity AMARE” value ([20]; 250 g ai/ha) was 100, the “Post-emerge Herbicidal Activity CASOB” value ([21]; 63 g ai/ha) was 20 and the “Post-emerge Herbicidal Activity CASOB” value ([21]; 250 g ai/ha) was 40. The “Post-emerge Herbicidal Activity ABUTH” value ([22]; 63 g ai/ha) was 100, the “Post-emerge Herbicidal Activity ABUTH” value ([22]; 250 g ai/ha) was 100 and the “Post-emerge Herbicidal Activity CORN (crop damage)” value ([23]; 63 g ai/ha) was 10. For the same compound, the “Post-emerge Herbicidal Activity CORN (crop damage)” value ([23]; 250 g ai/ha) was 25, the “Post-emerge Herbicidal Activity RICE (crop damage)” value ([24]; 63 g ai/ha) was 40 and the “Post-emerge Herbicidal Activity RICE (crop damage)” value ([24]; 250 g ai/ha) was 60.
